The source of these data is US9335332B2, “Nicotinamide phosphoribosyltransferase (NMPRTase) inhibitor for glioma therapy” (COUNCIL OF SCIENTIFIC AND INDUSTRIAL RESEARCH, priority 2010, dated 2016).

The target of experiment [1] is T1, NMPRTase (Homo sapiens, UniProt P43490).
T1 construct: To prepare cytoplasmic extract, as source of NMPRTase, logarithmically growing U87 glioblastoma cells were collected; endogenous in cells; host or cells: U87 glioblastoma cells (cytoplasmic extract)
Put plainly: NMPRTase assay: conversion of 14[C]-nicotinamide to 14[C]-NAD by U87 cell extract. As to conditions: 14[C]-NAD formed, FIG. 2C, 3A and 3B. It is filed as biochemical. The protocol:
In accordance with the inventive steps, the measurement of NMPRTase activity was carried. To prepare cytoplasmic extract, as source of NMPRTase, logarithmically growing U87 glioblastoma cells were collected by centrifugation and washed three times with Ca^2+, Mg^2+ free PBS. The cells pellet (2 to 3×10^7 cells) was suspended and lysed in 1 mL of 0.01 M NaH2PO4 (pH 7.4) by one round of freezing and slow thawing. The clear supernatant was recovered on ice after centrifugation at 23,000×g at 0° C. for 90 mins. […] of 1% protamine sulfate were added per ml of supernatant and incubated for 15 min on ice, followed by centrifugation at 23,000×g at 0° C. for 30 mins. The final supernatant was stored in small aliquots at −80° C. The NMPRTase activity was determined in 0.5 ml of reaction solution consisting of 5 mM MgCl2, 2 mM ATP, 0.5 mM phosphoribosyl PPI (pyrophosphate), 0.1 mM 14[C]-nicotinamide (specific activity: 50 mCi/mmol; American Radiolabeled Chemicals, Inc.) and 50 mM Tris (pH 8.8) at 37° C. […] The precipitate was removed by centrifugation at 2500×g at 4° C. for 10 min and the supernatant was stored at −20° C. The 14[C]-labeled components in the cell extracts were separated and identified using thin-layer chromatography (cellulose/1 M ammonium sulphate:ethanol (3:7). The chromatograms were run and exposed to imaging plates (Fuji) read using Phosphoimger (Fuji) the 14[C]-labeled NAD was quantified using Alpha Innotec software.
In accordance with the inventive steps, selected compounds were tested for inhibition of NMPRTase activity. Measurement of the ability of NMPRTase to convert 14[C]-nicotinamide to 14[C]-NAD was carried out. Most of the glioblastoma tissues have elevated levels of transcript and protein of PBEF1/NMPRTase. To prepare NMPRTase enzyme, firstly a panel of glioma derived cell lines was tested for NMPRTase transcript and protein levels.

The test system of experiment [2] is glioma derived cell line U87. Put plainly: MTT viability assay, U87 cells. Type of experiment: cell-based. The following applies: Homo sapiens, U-87 MG, MTT at 48 hrs after addition of compounds. The protocol: Viability was measured by MTT assay at 48 hrs after addition of indicated compounds to U87 cells. The assays were carried out in triplicates and the mean value for each time point was used to generate the graph.
In accordance with the inventive steps, MTT assay was performed (Das, S.; El-Deiry, W. S.; Somasundaram, K. Efficient growth inhibition of HPV 16 E6-expressing cells by an adenovirus-expressing p53 homologue p73beta. Oncogene 2003, 22, 8394-402). A total of 1.5×10^3 cells/well were plated in a 96-well plate. After 24 h of plating, the cells were treated with indicated amounts of compounds. A measure of 20 μL (5 mg/mL) of MTT was added to each well 48 hrs after the addition of the compounds. MTT is a tetrazolium salt that is converted by living cells into purple formazan crystals. The medium was removed from the wells 3 hrs after MTT addition and 200 μL of DMSO (Dimethyl sulfoxide) was added to dissolve the formazan crystals, and then the absorbance was measured at 550 nm in an ELISA reader.
In accordance with the inventive steps, to correlate the NMPRTase inhibition property with cell growth inhibition, the ability of these compounds to inhibit the growth of a glioma derived cell line U87 was tested, which has elevated levels of PBEF1.
For orientation: Formazan colour is commonly taken as a measure of viable cells.

Experiment [3] deals with T1, NMPRTase. As to conditions: reference compounds, Table 1A; cited from earlier work.

T1 sequence (P43490 whole entry): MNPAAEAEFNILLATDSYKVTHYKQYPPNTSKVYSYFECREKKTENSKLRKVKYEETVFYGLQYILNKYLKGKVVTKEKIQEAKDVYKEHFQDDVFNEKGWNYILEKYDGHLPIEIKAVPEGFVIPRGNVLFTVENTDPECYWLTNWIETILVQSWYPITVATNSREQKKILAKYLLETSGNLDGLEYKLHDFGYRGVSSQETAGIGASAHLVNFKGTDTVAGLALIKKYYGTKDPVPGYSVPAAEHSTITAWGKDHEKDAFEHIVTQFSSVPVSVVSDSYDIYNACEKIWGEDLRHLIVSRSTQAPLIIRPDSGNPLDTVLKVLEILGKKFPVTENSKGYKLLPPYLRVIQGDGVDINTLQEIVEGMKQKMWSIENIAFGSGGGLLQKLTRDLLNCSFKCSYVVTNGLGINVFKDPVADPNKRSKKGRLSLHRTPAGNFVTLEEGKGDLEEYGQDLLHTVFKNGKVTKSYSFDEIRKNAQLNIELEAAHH

As a reminder, the IC50 is the concentration at which inhibition is half-maximal. Read a high IC50 as lower potency. As to `O=C1c2cc(S(=O)(=O)[O-])ccc2-c2ccc(S(=O)(=O)[O-])cc21.[K+].[K+]` [Compound 1, Dipotassium 9-oxo-9H-fluorene-2,7-disulfonate], in experiment [1], the “Inhibition of NMPRTase activity” value is given as “did not inhibit NMPRTase activity”. The molecule also yielded an IC50 in experiment [2] of 335 µM.

For `CCOC(=O)c1nn(-c2ccccc2)c(=O)c2c(N)c(C#N)c(-c3ccco3)cc12` [Compound 2, Ethyl-5-amino-6-cyano-7-(2-furyl)-4-oxo-3-phenyl-3,4-dihydro-1-phthalazinecarboxylate], the IC50 in experiment [2] was > 500 µM.

Take `CC(=O)c1cc(-n2nc3ccccc3n2)c(O)c(-n2nc3ccccc3n2)c1O` [Compound 3, 1,[3,5-Di(2H-1,2,3-benzotriazol-2-yl)-2,4-dihydroxyphenyl]ethan-1-one]: the IC50 in experiment [2] was > 500 µM.

As to `CC12OC(c3ccccc3)=CC(c3ccccc3)=C1C(c1ccccc1)=CC2=O` (centres unmarked) [Compound 4, 7a-methyl-2,4,5-triphenyl-7,7a-dihydrocyclopenta[b]pyran-7-one], in experiment [1], the “Inhibition of NMPRTase activity” value is listed as “inhibited NMPRTase activity”. Also, the IC50 in experiment [2] was > 500 µM.

`Nc1c(-c2ccc3ccccc3n2)c2ccc([N+](=O)[O-])cc2c(=O)n1Cc1ccccc1` [Compound 5, 3-amino-2-benzyl-7-nitro-4-(2-quinolyl)-1,2-dihydroisoquinolin-1-one]: the “Inhibition of NMPRTase activity” value in experiment [1] is listed as “inhibited NMPRTase activity”. In experiment [2], this molecule gave an IC50 of 325 µM.

On to `Cc1nn(-c2ccccc2)nc1CNC(=O)C1=Cc2ccccc2OC1` [Compound 6, N-[(5-methyl-2-phenyl-2H-1,2,3-triazol-4-yl)methyl]-2H-chromene-3-carboxamide], for which, in experiment [2], the half-maximal inhibitory concentration (IC50) was > 500 µM.

With `O=C(/C=C/c1cccnc1)NCCCCC1CCN(C(=O)c2ccccc2)CC1` [FK866, reference compound], the “Inhibition of NMPRTase activity” value in experiment [1] is reported as “inhibited efficiently”. The molecule also gave a concentration for half-maximal inhibition (IC50) in experiment [2] of 170 µM. Besides, the “Biochemical energy of binding” value in experiment [3] is -9.25 kcal/mol.

As for `O=C(O)c1cccnc1` [Niacin, reference compound], the IC50 in experiment [2] was > 500 µM.

As to `NC(=O)c1cccnc1` [Nicotinamide], the IC50 in experiment [2] was > 500 µM.
